Measurements as given in patent US8653088B2, “Compositions useful as inhibitors of protein kinases” (Vertex Pharmaceuticals Incorporated, priority 2003, dated 2014).

Target: GSK-3β (AA 1-420) (Homo sapiens, UniProt P49841)
Test: Inhibition of GSK-3, standard coupled enzyme system
Type: biochemical
Details: 20 μM ATP, 300 μM peptide, 20 nM GSK-3β, 30° C.
Experimental: Compounds were screened for their ability to inhibit GSK-3β (AA 1-420) activity using a standard coupled enzyme system (Fox et al. Protein Sci. 7, p. 2249 (1998)). Reactions were carried out in a solution containing 100 mM HEPES (pH 7.5), 10 mM MgCl2, 25 mM NaCl, 300 μM NADH, 1 mM DTT and 1.5% DMSO. Final substrate concentrations in the assay were 20 μM ATP (Sigma Chemicals, St Louis, Mo.) and 300 μM peptide (American Peptide, Sunnyvale, Calif.). Reactions were carried out at 30° C. and 20 nM GSK-3β. Final concentrations of the components of the coupled enzyme system were 2.5 mM phosphoenolpyruvate, 300 μM NADH, 30 μg/ml pyruvate kinase and 10 μg/ml lactate dehydrogenase.
An assay stock buffer solution was prepared containing all of the reagents listed above with the exception of ATP and the test compound of interest. The assay stock buffer solution (175 μl) was incubated in a 96 well plate with 5 μl of the test compound of interest at final concentrations spanning 0.002 μM to 30 μM at 30° C. for 10 min. Typically, a 12 point titration was conducted by preparing serial dilutions (from 10 mM compound stocks) with DMSO of the test compounds in daughter plates. The reaction was initiated by the addition of 20 μl of ATP (final concentration 20 μM). Rates of reaction were obtained using a Molecular Devices Spectramax plate reader (Sunnyvale, Calif.) over 10 min at 30° C. The Ki values were determined from the rate data as a function of inhibitor concentration.

GSK-3β (AA 1-420), sequence (P49841 whole entry, species assumed, the tested form may be a part): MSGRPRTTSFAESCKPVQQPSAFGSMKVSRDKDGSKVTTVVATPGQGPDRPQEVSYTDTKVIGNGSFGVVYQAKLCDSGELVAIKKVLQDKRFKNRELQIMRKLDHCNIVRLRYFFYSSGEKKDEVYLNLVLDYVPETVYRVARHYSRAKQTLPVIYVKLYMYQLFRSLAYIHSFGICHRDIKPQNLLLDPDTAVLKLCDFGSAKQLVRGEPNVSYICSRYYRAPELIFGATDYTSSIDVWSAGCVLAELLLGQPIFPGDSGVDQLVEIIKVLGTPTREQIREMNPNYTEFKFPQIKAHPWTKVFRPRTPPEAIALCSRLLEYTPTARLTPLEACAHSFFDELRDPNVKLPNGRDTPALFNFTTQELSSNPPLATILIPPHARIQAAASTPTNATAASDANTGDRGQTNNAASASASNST

Ki [µM] | Structure (SMILES)
< 4 | Nc1n[nH]c2cc(=O)n(-c3ccccc3)nc12 [Compound I-2]
< 4 | Nc1n[nH]c2cc(=O)n(-c3ccc(Oc4ccccc4)cc3)nc12 [Compound I-4]
< 4 | COc1cc2ncnc(Nc3n[nH]c4cc(=O)n(-c5cccc(C(F)(F)F)c5)nc34)c2cc1OC [Compound I-6]
< 4 | COc1cccc(-n2nc3c(N)n[nH]c3cc2=O)c1 [Compound I-1]
< 4 | Cc1ccc(-n2nc3c(N)n[nH]c3cc2=O)cc1 [Compound I-5]
< 4 | Nc1n[nH]c2cc(=O)n(-c3cccc(S(N)(=O)=O)c3)nc12 [Compound I-9]
< 4 | Nc1n[nH]c2cc(=O)n(-c3cccc([N+](=O)[O-])c3)nc12 [Compound I-7]
< 4 | Nc1n[nH]c2cc(=O)n(-c3cccc(Cl)c3)nc12 [Compound I-8]
